Data: patent US8193235B2, “Compositions and methods for establishing and maintaining stem cells in an undifferentiated state” (University of Kansas, priority 2009, dated 2012)

What was measured:
E14 cells = assay: Growth under serum free condition (N2B27 medium); assay type: cell-based, mouse
Procedure: Growth Under Serum Free Condition. E14 cells were maintained in serum-free N2B27 medium containing DMEM/F12 (Invitrogen), Neurobasal media (Invitrogen), B27 supplement (Invitrogen), N2 supplement (Invitrogen), BSA fraction V (Invitrogen), 2-mercaptoethanol (Sigma) and LIF/BMP4 (R&D Systems, Minneapolis, Minn.) with change of medium on alternate days and passed in every 2-4 days. For experiments with Gö6983, ˜5×10^4 E14 cells were plated on each well of a gelatin-coated 6-well plate having N2B27 medium without LIF/BMP4 and with or without 5 μM Gö6983 and cultured for 3-4 days before passing. Cells were analyzed for expression of different markers (by RT-PCR or immunofluorescence study). For experiments at clonal density, initially, E14 cells were cultured at high density in N2B27 medium with Gö6983 alone for 4 passages, then ˜200 cells were plated in each wells of a 96-well plate with Gö6983 in N2B27 and cultured for 7 more days. After 7 days, colonies were analyzed for Oct4 staining.

STAT3 = STAT3 phosphorylation, Western blot; assay type: cell-based, mouse; conditions: E14 cells
Procedure: E14 ES Cell Cultures. Cells were grown in ES-IMDM media (Lonza, Walkersville, Md.) in a feeder-free condition. ES-IMDM was supplemented with 15% serum, 10^5 U/100 ml of LIF (ESGRO, Millipore, Calif.) and 0.0124% monothioglycerol (MTG; Sigma Aldrich). Cells were grown for 3-5 days with change of medium every day. For inducing differentiation in monolayer culture and to determine the effect of Gö6983 in preventing differentiation, E14 cells were cultured on gelatin-coated plastics for 8 days without LIF. Details of experiments performed at clonal-density are described herein. To maintain E14 cells with Gö6983, serum supplemented ES-IMDM was used in the presence of 5 μM Gö6983 and was passed after every 3-5 days. For all assays involving elucidation of different signaling mechanism responsible for maintenance of pluripotency, cells from a ˜70% confluent ES culture plate were washed two times with 1× phosphate-buffered saline (PBS), trypsinized and plated on a 6-well tissue culture plate and treated with or without LIF or Gö6983 or different inhibitors for ˜10 hours followed by preparation of protein lysates and RNA. The PKCζ knocked-down E14 cells that were generated in this study were maintained in serum supplemented ES-IMDM on gelatin-coated plates in the absence of Gö6983 or LIF or any other inhibitor and passed after 3-5 days. […]

[1] = test system: Oct4 and Nanog promoter regions; assay: DNA methylation analysis (bisulfite sequencing, MSP); assay type: cell-based, mouse; conditions: E14 cells, 5 days on collagen-IV
Description: DNA Methylation Analysis. One μg of genomic DNA was subjected to bisulfite treatment using CPGENOME Fast DNA Modification Kit (Chemicon Int.). For bisulfite sequencing, the modified DNA was amplified by nested polymerase chain reaction (PCR) using two forward (F) primers and one reverse (R) primer: Oct4 (F1, 5′-GTTGTTTTGTTTTGGTTTTGGATAT-3′, SEQ ID NO:57; F2, 5′-ATGGGTTGAAATATTGGGTTTATTTA-3′, SEQ ID N:58; and R, 5′-CCACCCTCTAACCTTAACCTCTAAC-3′, SEQ ID NO:59) and Nanog (F1, 5′-GAGGATGTTTTTTAAGTTTTTTTT-3′, SEQ ID NO:60; F2, 5′-AATGTTTATGGTGGATTTTGTAGGT-3′, SEQ ID NO:;61; and R, 5′-CCCACACTCATATCAATATAATAAC-3′, SEQ ID NO:62). The resulting PCR product was gel purified, subcloned into pGEM-T vector (Promega) and sequenced using M13R primer. Following primers were used for MSP: Oct4, (F) 5′-GGTTTTAGAAATAATTGGTATACGA-3′ (SEQ ID NO:63), and (R) 5′-CTATTAACACTACACCCTCTCGAC-3′ (SEQ ID NO:64); and Nanog, (F) 5′-ATTTGTGAGTATAAGGATTGATCGG-3′ (SEQ ID NO:65), and (R) 5′-TTTCTTTAAAATAAAATTTCACGTA-3′ (SEQ ID NO:66). PCR products were analyzed on agarose gel.

endothelial cells = conditions: Dutta, et al. (2008); cited from earlier work

## COc1ccc2c(c1)c(C1=C(c3c[nH]c4ccccc34)C(=O)NC1=O)cn2CCCN(C)C [Gö6983, 3-[1-[3-(dimethylamino)propyl]5-methoxy-1H-indol-3-yl]-4-(1H-indol-3-yl)-1H-pyrrole-2,5-dione]
E14 cells; N2B27 medium plus Gö6983, clonal density
  cell survival when propagated at clonal density in N2B27 medium: poor
E14 cells; N2B27 without serum, LIF, BMP4, FIG. 1C
  induction of inhibitor-of-differentiation genes: not associated with the induction of inhibitor-of-differentiation genes
E14 cells; without serum, LIF and BMP4
  undifferentiated state in N2B27 medium: could be maintained in an undifferentiated state
STAT3
  STAT3 phosphorylation: did not induce
[1]
  DNA methylation of promoter regions of Oct4 and Nanog: remained largely unmethylated
Endothelial cells
  angiogenic signal-induced VEGFR1 expression in endothelial cells: inhibits angiogenic signal-induced VEGFR1 expression
